Assay results taken from ChEMBL document CHEMBL1124383, “Carbamyl analogues of potent nicotinic agonists: pharmacology and computer-assisted molecular modeling study” (J Med Chem, 1989).

System: frog
Assay: Potency with reference to carbamylcholine at the frog neuromuscular junction, expressed as reciprocal of equipotent molar ratio
Assay type: functional

CC(=O)C1=CC[N+](C)(C)CC1
Potency: 50

CC(=O)N1CC[N+](C)(C)CC1
Potency: 2.6

C[N+]1(C)CCC(C(N)=O)CC1
Potency: 0.052

C[N+]1(C)CC=C(C(N)=O)CC1
Potency: 0.77

CC(=O)C1CC[N+](C)(C)CC1
Potency: 9.1

C[N+]1(C)CCN(C(N)=O)CC1
Potency: 0.15
